Reference: patent publication US20250215029A1 (Recludix Pharma, Inc., priority 2022, published 2025)
Read-outs that look alike come from different tables or passages of the source.

Key:
[1] = target: T1, Recombinant STAT6 protein (STAT6 (W123-T658)) (Homo sapiens, UniProt P42226); assay: STAT6 Fluorescence Polarization (FP) Assay; assay type: binding; settings: probe 5-FAM-Ap[…]-NH2 2 nM, 45-minute incubation
T1 construct: Recombinant STAT6 protein (STAT6 (W123-T658))
T1 sequence (P42226 123-658): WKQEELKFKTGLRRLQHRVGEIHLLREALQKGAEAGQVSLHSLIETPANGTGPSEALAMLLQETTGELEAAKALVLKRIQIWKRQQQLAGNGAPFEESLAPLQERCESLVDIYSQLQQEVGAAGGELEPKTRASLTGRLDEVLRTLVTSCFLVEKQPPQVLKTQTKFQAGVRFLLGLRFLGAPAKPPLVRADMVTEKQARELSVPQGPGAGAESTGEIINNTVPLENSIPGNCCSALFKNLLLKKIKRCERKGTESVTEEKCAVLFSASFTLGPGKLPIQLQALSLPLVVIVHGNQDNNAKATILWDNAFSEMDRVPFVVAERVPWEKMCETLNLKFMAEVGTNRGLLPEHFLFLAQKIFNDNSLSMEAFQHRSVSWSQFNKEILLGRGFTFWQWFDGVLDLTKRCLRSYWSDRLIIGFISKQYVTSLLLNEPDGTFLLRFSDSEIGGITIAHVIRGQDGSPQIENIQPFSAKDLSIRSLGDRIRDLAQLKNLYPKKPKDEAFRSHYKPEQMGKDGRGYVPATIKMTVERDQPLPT
Summary of the method: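 STAT6 (W123-T658) at 250 nM was mixed with 2 nM 5-FAM-labeled phosphotyrosine peptide probe in HEPES pH 7.4 buffer with NaCl, EDTA, Tween 20 and DTT, then added to serially diluted compounds at 1% DMSO final. Polarization was read after 45 min at room temperature; IC50 came from nonlinear regression of mP versus log concentration.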

[2] = target: T2, Recombinant STAT3 protein (STAT3 (G127-I722)) (Homo sapiens, UniProt P40763); assay: STAT3 Fluorescence Polarization (FP) Assay; assay type: binding; settings: probe 5-FAM-GpYLPQTV-NH2 2 nM, 45-minute incubation
T2 construct: Recombinant STAT3 protein (STAT3 (G127-I722))
T2 sequence (P40763 127-722): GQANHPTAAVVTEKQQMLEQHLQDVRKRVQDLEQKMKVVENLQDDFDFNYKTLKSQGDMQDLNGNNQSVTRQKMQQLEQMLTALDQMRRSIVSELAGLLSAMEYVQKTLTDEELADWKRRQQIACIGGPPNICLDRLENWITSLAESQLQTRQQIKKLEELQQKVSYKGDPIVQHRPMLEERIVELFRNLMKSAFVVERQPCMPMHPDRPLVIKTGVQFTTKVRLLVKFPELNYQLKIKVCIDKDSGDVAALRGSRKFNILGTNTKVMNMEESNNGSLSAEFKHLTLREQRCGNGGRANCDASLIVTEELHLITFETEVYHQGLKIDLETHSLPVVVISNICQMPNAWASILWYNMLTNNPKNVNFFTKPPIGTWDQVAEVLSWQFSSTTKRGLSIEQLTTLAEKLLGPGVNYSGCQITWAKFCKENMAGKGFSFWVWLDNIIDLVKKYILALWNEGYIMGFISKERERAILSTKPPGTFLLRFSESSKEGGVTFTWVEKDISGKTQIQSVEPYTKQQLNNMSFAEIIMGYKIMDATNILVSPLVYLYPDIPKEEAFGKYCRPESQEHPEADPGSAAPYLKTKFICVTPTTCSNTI
Summary of the method: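 Read-out is fluorescence polarization (mP) after 45 min at room temperature, with IC50 fitted by nonlinear regression against log compound concentration. Mixture: 25 nM STAT3 (G127-I722), 2 nM 5-FAM-GpYLPQTV-NH2 phosphopeptide, 10 mM HEPES pH 7.4 buffer, 1% DMSO.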

[3] = STAT6 (W123-T658) 250 nM, read-out: STAT6 (FP assay IC50 class)
[4] = STAT3 (G127-I722) 25 nM, read-out: STAT3 (FP assay IC50 class)
[5] = STAT6 250 nM, read-out: STAT6 (FP assay IC50)
[6] = STAT3 25 nM, read-out: STAT3 (FP assay IC50)

| Compound | IC50 [1, 3] [nM] | IC50 [2, 4] [nM] | IC50 [1, 5] [nM] | IC50 [2, 6] [nM] |
| --- | --- | --- | --- | --- |
| O=C(N[C@H]1CCC[C@H]2CC[C@@H](C(=O)N3CC(c4cnccc4N4CC(OC(F)F)C4)C3)N2C1=O)c1cc2cc([C@@H](F)P(=O)(O)O)ccc2s1 [Compound 852, ((S)-(2-(((3S,6S,9aS)-3-(3-(4-(3-(difluoromethoxy)azetidin-1-yl)pyridin-3-yl)azetidine-1-carbonyl)-5-oxooctahydro-1H-pyrrolo[1,2-a]azepin-6-yl)carbamoyl)benzo [b]thiophen-5-yl)fluoromethyl) phosphonic acid] | 300 to 3000 | < 100 | – | – |
| COc1ccncc1C1CN(C(=O)[C@@H]2CC[C@@H]3CCC[C@H](NC(=O)c4cc5cc([C@@H](F)P(=O)(O)O)ccc5s4)C(=O)N32)C1 (single isomer, unassigned) [Compound 756] | 3000 to 30000 | < 100 | – | – |
| C[C@]1(NC(=O)c2cc3cc(C(F)(F)P(=O)(O)O)ccc3s2)CCCC[C@H]2CC[C@@H](C(=O)N3CC(C(=O)N4CCOCC4)C3)N2C1=O [Compound 40, (difluoro(2-(((3S,6S,10aS)-6-methyl-3-(3-(morpholine-4-carbonyl)azetidine-1-carbonyl)-5-oxodecahydropyrrolo [1,2-a]azocin-6-yl)carbamoyl)benzo[b]thiophen-5-yl)methyl) phosphonic acid] | – | – | 3000 to 30000 | 100 to 1000 |
| COc1cncc(C2CN(C(=O)[C@@H]3CC[C@@H]4CCC[C@H](NC(=O)c5cc6cc(CP(=O)(O)O)ccc6s5)C(=O)N43)C2)c1C [Compound 506, ((2-(((3S,6S,9aS)-3-(3-(5-methoxy-4-methylpyridin-3-yl)azetidine-1-carbonyl)-5-oxooctahydro-1H-pyrrolo[1,2-a]azepin-6-yl)carbamoyl)benzo[b]thiophen-5-yl)methyl)phosphonic acid] | 3000 to 30000 | 1000 to 10000 | – | – |
| O=C(N[C@H]1CCCC[C@H]2CC[C@@H](C(=O)N3CC(c4nc5ccccc5o4)C3)N2C1=O)c1cc2cc(C(F)(F)P(=O)(O)O)ccc2s1 [Compound 497, ((2-(((3S,6S,10aS)-3-(3-(benzo[d]oxazol-2-yl)azetidine-1-carbonyl)-5-oxodecahydropyrrolo[1,2-a]azocin-6-yl)carbamoyl)benzo[b]thiophen-5-yl)difluoromethyl)phosphonic acid] | 300 to 3000 | 100 to 1000 | – | – |
| O=C(N[C@H]1CCC[C@H]2CC[C@@H](C(=O)N3CC(c4cnccc4N4C[C@H]5C[C@@H]4CO5)C3)N2C1=O)c1cc2cc(C(F)P(=O)(O)O)ccc2s1 (stereo partly drawn) [Compound 694, ((2-(((3S,6S,9aS)-3-(3-(4-((1R,4R)-2-oxa-5-azabicyclo[2.2.1]heptan-5-yl)pyridin-3-yl)azetidine-1-carbonyl)-5-oxooctahydro-1H-pyrrolo[1,2-a]azepin-6-yl)carbamoyl)benzo [b]thiophen-5-yl)fluoromethyl) phosphonic acid] | 300 to 3000 | < 100 | – | – |
| O=C(N[C@H]1CCCC[C@H]2CC[C@@H](C(=O)N3CCC(c4cccnc4)C3)N2C1=O)c1cc2cc(CP(=O)(O)O)ccc2s1 (stereo partly drawn) [Compound 509, ((2-(((3S,6S,10aS)-5-oxo-3-(3-(pyridin-3-yl)pyrrolidine-1-carbonyl)decahydropyrrolo[1,2-a]azocin-6-yl)carbamoyl)benzo[b]thiophen-5-yl)methyl)phosphonic acid] | 3000 to 30000 | 1000 to 10000 | – | – |
| C/C1=C/C[C@H](NC(=O)c2cc3cc(C(F)(F)P(=O)(O)O)ccc3s2)C(=O)N2[C@H](CC[C@H]2C(=O)N2CC(c3cnccc3C)C2)C1 [Compound 641, (difluoro(2-(((3S,6S,10aR,Z)-9-methyl-3-(3-(4-methylpyridin-3-yl)azetidine-1-carbonyl)-5-oxo-1,2,3,5,6,7,10,10a-octahydropyrrolo[1,2-a]azocin-6-yl)carbamoyl)benzo [b]thiophen-5-yl)methyl) phosphonic acid] | 300 to 3000 | < 100 | – | – |
| COC1(CS(C)(=N)=O)CN(C(=O)[C@@H]2CC[C@@H]3CCC[C@H](NC(=O)c4cc5cc(C(F)(F)P(=O)(O)O)ccc5s4)C(=O)N32)C1 (stereo partly drawn) [Compound 822, (difluoro(2-(((3S,6S,9aS)-3-(3-methoxy-3-((S-methylsulfonimidoy 1)methyl)azetidine-1-carbonyl)-5-oxooctahydro-1H-pyrrolo[1,2-a]azepin-6-yl)carbamoyl)benzo [b]thiophen-5-yl)methyl) phosphonic acid] | 3000 to 30000 | 100 to 1000 | – | – |
| CN(C(=O)[C@@H]1CC[C@@H]2C/C=C\C[C@H](NC(=O)c3cc4cc(C(F)(F)P(=O)(O)O)ccc4[nH]3)C(=O)N21)c1ccccc1 [Compound 30] | – | – | 300 to 3000 | 1000 to 10000 |
| Cc1ccncc1C1CN(C(=O)[C@@H]2CC[C@@H]3C[C@H](C)C[C@H](NC(=O)c4cc5cc([C@H](F)P(=O)(O)O)ccc5s4)C(=O)N32)C1 (single isomer, unassigned) [Compound 740] | 3000 to 30000 | < 100 | – | – |
| N#C[C@@H]1CN(C(=O)[C@@H]2CCC[C@@H]3CCCC[C@H](NC(=O)c4cc5cc(C(F)(F)P(=O)(O)O)ccc5s4)C(=O)N32)CC1c1ccccc1 (mixture of isomers) [Compound 63, ((2-(((4S,7S,11aS)-4-(rel-(trans)-3-cyano-4-phenylpyrrolidine-1-carbonyl)-6-oxodecahydro-2H-pyrido[1,2-a]azocin-7-yl)carbamoyl)benzo[b]thiophen-5-yl)difluoromethyl) phosphonic acid] | – | – | ≤ 300 | 100 to 1000 |
| O=C(N[C@H]1CCCC[C@H]2CC[C@@H](C(=O)NCc3cnc4[nH]cnc4c3)N2C1=O)c1cc2cc(CP(=O)(O)O)ccc2s1 [Compound 640, ((2-(((3S,6S,10aS)-3-(((3H-imidazo[4,5-b]pyridin-6-yl)methyl)carbamoyl)-5-oxodecahydropyrrolo [1,2-a]azocin-6-yl)carbamoyl)benzo [b]thiophen-5-yl)methyl) phosphonic acid] | 3000 to 30000 | 100 to 1000 | – | – |
| Cc1ccnc(F)c1C1CN(C(=O)[C@@H]2CC[C@@H]3CCC[C@H](NC(=O)c4cc5cc(CP(=O)(O)O)ccc5s4)C(=O)N32)C1 [Compound 505, ((2-(((3S,6S,9aS)-3-(3-(2-fluoro-4-methylpyridin-3-yl)azetidine-1-carbonyl)-5-oxooctahydro-1H-pyrrolo[1,2-a]azepin-6-yl)carbamoyl)benzo[b]thiophen-5-yl)methyl)phosphonic acid] | 3000 to 30000 | 1000 to 10000 | – | – |
| COC(=O)N1CC[C@@H](NC(=O)[C@@H]2CC[C@@H]3CCCC[C@H](NC(=O)c4cc5cc(C(F)P(=O)(O)O)ccc5s4)C(=O)N32)C1 (stereo partly drawn) [Compound 522, (fluoro(2-(((3S,6S,10aS)-3-(((R)-1-(methoxycarbonyl)pyrrolidin-3-yl)carbamoyl)-5-oxodecahydropyrrolo[1,2-a]azocin-6-yl)carbamoyl)benzo[b]thiophen-5-yl)methyl)phosphonic acid] | 300 to 3000 | 1000 to 10000 | – | – |
| CN(C)c1ncncc1C1CN(C(=O)[C@@H]2CC[C@@H]3CCC[C@H](NC(=O)c4cc5cc([C@H](F)P(=O)(O)O)ccc5s4)C(=O)N32)C1 (single isomer, unassigned) [Compound 665] | 3000 to 30000 | < 100 | – | – |
| O=C(N[C@H]1CC[C@H](O)C[C@H]2CC[C@@H](C(=O)N3CC(n4ccnc4)C3)N2C1=O)c1cc2cc(C(F)(F)P(=O)(O)O)ccc2s1 [Compound 15, ((2-(((3S,6S,9S,10aR)-3-(3-(1H-imidazol-1-yl)azetidine-1-carbonyl)-9-hydroxy-5-oxodecahydropyrrolo [1,2-a]azocin-6-yl)carbamoyl)benzo[b]thiophen-5-yl)difluoromethyl) phosphonic acid] | – | – | 300 to 3000 | < 100 |
| CC(C)OC1(c2nncn2C)CN(C(=O)[C@@H]2CC[C@@H]3CCC[C@H](NC(=O)c4cc5cc(C(F)(F)P(=O)(O)O)ccc5s4)C(=O)N32)C1 [Compound 823, (difluoro(2-(((3S,6S,9aS)-3-(3-isopropoxy-3-(4-methyl-4H-1,2,4-triazol-3-yl)azetidine-1-carbonyl)-5-oxooctahydro-1H-pyrrolo[1,2-a]azepin-6-yl)carbamoyl)benzo [b]thiophen-5-yl)methyl) phosphonic acid] | 3000 to 30000 | 100 to 1000 | – | – |
